# Test results from PubChem BioAssay AID1963837 (Molecular Pharmacology Branch, DTP, NCI, 2024).
# Test system: 843126-344-R-J1-PDC complex spheroid viability
# Experiment: Anticancer human tumor 843126-344-R-J1-PDC patient-derived melanoma cell line growth inhibition [POLQ]
# Conditions: for IC50: curve of first compound; for viability, T/C: stronger effect = lower value
# Outline: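 PDC + HUVEC + MSC complex spheroids; POLQ inhibitors ± partner drugs; top conc. at/near clinical Cmax, else 10 microM (SN-38 1 microM), half-log dilutions; 37 degrees C, 5% CO2.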
# [1] = second compound 0.0316 µM, first compound 0.0316 µM
# [2] = second compound 0.0316 µM, first compound 0.1 µM
# [3] = second compound 0.0316 µM, first compound 0.316 µM
# [4] = second compound 0.0316 µM, first compound 1 µM
# [5] = second compound 0.0316 µM, first compound 3.16 µM
# [6] = second compound 0.0316 µM, first compound 10 µM
# [7] = second compound 0.1 µM, first compound 0.0316 µM
# [8] = second compound 0.1 µM, first compound 0.1 µM
# [9] = second compound 0.1 µM, first compound 0.316 µM
# [10] = second compound 0.1 µM, first compound 1 µM
# [11] = second compound 0.1 µM, first compound 3.16 µM
# [12] = second compound 0.1 µM, first compound 10 µM
# [13] = second compound 0.316 µM, first compound 0.0316 µM
# [14] = second compound 0.316 µM, first compound 0.1 µM
# [15] = second compound 0.316 µM, first compound 0.316 µM
# [16] = second compound 0.316 µM, first compound 1 µM
# [17] = second compound 0.316 µM, first compound 3.16 µM
# [18] = second compound 0.316 µM, first compound 10 µM
# [19] = second compound 1 µM, first compound 0.0316 µM
# [20] = second compound 1 µM, first compound 0.1 µM
# [21] = second compound 1 µM, first compound 0.316 µM
# [22] = second compound 1 µM, first compound 1 µM
# [23] = second compound 1 µM, first compound 3.16 µM
# [24] = second compound 1 µM, first compound 10 µM
# [25] = second compound 3.16 µM, first compound 0.0316 µM
# [26] = second compound 3.16 µM, first compound 0.1 µM
# [27] = second compound 3.16 µM, first compound 0.316 µM
# [28] = second compound 3.16 µM, first compound 1 µM
# [29] = second compound 3.16 µM, first compound 3.16 µM
# [30] = second compound 3.16 µM, first compound 10 µM
# [31] = second compound 10 µM, first compound 0.0316 µM
# [32] = second compound 10 µM, first compound 0.1 µM
# [33] = second compound 10 µM, first compound 0.316 µM
# [34] = second compound 10 µM, first compound 1 µM
# [35] = second compound 10 µM, first compound 3.16 µM
# [36] = second compound 10 µM, first compound 10 µM
# 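Wherever viability, T/C is given: spheroids exposed to drugs for seven days before readout.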
compound,measurement,setting,value
CC1COCCN1c1cc(-c2ccnn2C)c2ccnc(-c3ccn[nH]3)c2n1 (stereo unspecified) + Nc1ccc(C#CCN(C(=O)Cc2ncc(C(F)(F)F)cc2C(F)(F)F)c2ccc(F)cc2)nn1,IC50,second compound 0.0316 µM,0.943 µM
same,IC50,second compound 0.1 µM,1.11 µM
same,IC50,second compound 0.316 µM,0.911 µM
same,IC50,second compound 1 µM,0.738 µM
same,IC50,second compound 3.16 µM,0.661 µM
same,IC50,second compound 10 µM,0.51 µM
same,"viability, T/C",[1],89.6%
same,"viability, T/C",[2],76.3%
same,"viability, T/C",[3],65.3%
same,"viability, T/C",[4],48.7%
same,"viability, T/C",[5],36.7%
same,"viability, T/C",[6],29%
same,"viability, T/C",[7],84.3%
same,"viability, T/C",[8],71.2%
same,"viability, T/C",[9],63.5%
same,"viability, T/C",[10],48.3%
same,"viability, T/C",[11],43.5%
same,"viability, T/C",[12],28.6%
same,"viability, T/C",[13],85.3%
same,"viability, T/C",[14],77.2%
same,"viability, T/C",[15],63.9%
same,"viability, T/C",[16],46.6%
same,"viability, T/C",[17],40.6%
same,"viability, T/C",[18],30.2%
same,"viability, T/C",[19],84.6%
same,"viability, T/C",[20],65.8%
same,"viability, T/C",[21],55.9%
same,"viability, T/C",[22],49.8%
same,"viability, T/C",[23],41.3%
same,"viability, T/C",[24],32.8%
same,"viability, T/C",[25],75.9%
same,"viability, T/C",[26],70.8%
same,"viability, T/C",[27],59.6%
same,"viability, T/C",[28],44.5%
same,"viability, T/C",[29],34.5%
same,"viability, T/C",[30],29.9%
same,"viability, T/C",[31],73.4%
same,"viability, T/C",[32],66.4%
same,"viability, T/C",[33],52.8%
same,"viability, T/C",[34],43.9%
same,"viability, T/C",[35],36.9%
same,"viability, T/C",[36],29.1%
CNCc1ccc(-c2[nH]c3cc(F)cc4c3c2CCNC4=O)cc1 + Cc1cccc(N(C)C(=O)C2C(O)CCN2c2nc(C)cc(C(F)(F)F)c2C#N)c1,IC50,second compound 0.0316 µM,> 10 µM
same,IC50,second compound 0.1 µM,> 10 µM
same,IC50,second compound 0.316 µM,> 10 µM
same,IC50,second compound 1 µM,> 10 µM
same,IC50,second compound 3.16 µM,> 10 µM
same,IC50,second compound 10 µM,> 10 µM
same,"viability, T/C",[1],76.6%
same,"viability, T/C",[2],84.1%
same,"viability, T/C",[3],75.3%
same,"viability, T/C",[4],91%
same,"viability, T/C",[5],79.4%
same,"viability, T/C",[6],79.2%
same,"viability, T/C",[7],84.7%
same,"viability, T/C",[8],77%
same,"viability, T/C",[9],95.7%
same,"viability, T/C",[10],73.5%
same,"viability, T/C",[11],87.3%
same,"viability, T/C",[12],64.5%
same,"viability, T/C",[13],85.3%
same,"viability, T/C",[14],98%
same,"viability, T/C",[15],82.6%
same,"viability, T/C",[16],90.2%
same,"viability, T/C",[17],77.3%
same,"viability, T/C",[18],69.7%
same,"viability, T/C",[19],68.9%
same,"viability, T/C",[20],87.2%
same,"viability, T/C",[21],95.7%
same,"viability, T/C",[22],82.4%
same,"viability, T/C",[23],94.6%
same,"viability, T/C",[24],64.3%
same,"viability, T/C",[25],79.8%
same,"viability, T/C",[26],83.4%
same,"viability, T/C",[27],83.6%
same,"viability, T/C",[28],85.2%
same,"viability, T/C",[29],87.5%
same,"viability, T/C",[30],72.9%
same,"viability, T/C",[31],82.5%
same,"viability, T/C",[32],76.9%
same,"viability, T/C",[33],76.9%
same,"viability, T/C",[34],90.5%
same,"viability, T/C",[35],88.3%
same,"viability, T/C",[36],74.9%
CCc1cc2c(N3CCc4c(cc(Cn5ccnc5)cc4-c4cn(C)nc4C(F)(F)F)C3=O)ccnc2c(OC)n1 + Nc1ccc(C#CCN(C(=O)Cc2ncc(C(F)(F)F)cc2C(F)(F)F)c2ccc(F)cc2)nn1,IC50,second compound 0.0316 µM,> 10 µM
same,IC50,second compound 0.1 µM,> 10 µM
same,IC50,second compound 0.316 µM,> 10 µM
same,IC50,second compound 1 µM,> 10 µM
same,IC50,second compound 3.16 µM,> 10 µM
same,IC50,second compound 10 µM,> 10 µM
same,"viability, T/C",[1],91.6%
same,"viability, T/C",[2],90.2%
same,"viability, T/C",[3],82%
same,"viability, T/C",[4],86.8%
same,"viability, T/C",[5],64.7%
same,"viability, T/C",[6],61.6%
same,"viability, T/C",[7],107%
same,"viability, T/C",[8],100%
same,"viability, T/C",[9],81.5%
same,"viability, T/C",[10],77.1%
same,"viability, T/C",[11],88%
same,"viability, T/C",[12],61.6%
same,"viability, T/C",[13],101%
same,"viability, T/C",[14],100%
same,"viability, T/C",[15],96.6%
same,"viability, T/C",[16],82.3%
same,"viability, T/C",[17],72.9%
same,"viability, T/C",[18],61.5%
same,"viability, T/C",[19],96.6%
same,"viability, T/C",[20],99.3%
same,"viability, T/C",[21],94.4%
same,"viability, T/C",[22],72.2%
same,"viability, T/C",[23],88.4%
same,"viability, T/C",[24],58.2%
same,"viability, T/C",[25],94.5%
same,"viability, T/C",[26],90.9%
same,"viability, T/C",[27],96.7%
same,"viability, T/C",[28],80.1%
same,"viability, T/C",[29],82.7%
same,"viability, T/C",[30],56.8%
same,"viability, T/C",[31],83%
same,"viability, T/C",[32],76.6%
same,"viability, T/C",[33],75.8%
same,"viability, T/C",[34],73.5%
same,"viability, T/C",[35],80.2%
same,"viability, T/C",[36],55.9%
